{"source": "ChEMBL document CHEMBL5465560", "about": "“Selectivity Literature for EUbOPEN Chemogenomic Library” (2024)", "key": {"[1]": {"target": "Protein kinase C theta type (Homo sapiens, UniProt Q04759)", "sequence (Q04759 whole entry)": "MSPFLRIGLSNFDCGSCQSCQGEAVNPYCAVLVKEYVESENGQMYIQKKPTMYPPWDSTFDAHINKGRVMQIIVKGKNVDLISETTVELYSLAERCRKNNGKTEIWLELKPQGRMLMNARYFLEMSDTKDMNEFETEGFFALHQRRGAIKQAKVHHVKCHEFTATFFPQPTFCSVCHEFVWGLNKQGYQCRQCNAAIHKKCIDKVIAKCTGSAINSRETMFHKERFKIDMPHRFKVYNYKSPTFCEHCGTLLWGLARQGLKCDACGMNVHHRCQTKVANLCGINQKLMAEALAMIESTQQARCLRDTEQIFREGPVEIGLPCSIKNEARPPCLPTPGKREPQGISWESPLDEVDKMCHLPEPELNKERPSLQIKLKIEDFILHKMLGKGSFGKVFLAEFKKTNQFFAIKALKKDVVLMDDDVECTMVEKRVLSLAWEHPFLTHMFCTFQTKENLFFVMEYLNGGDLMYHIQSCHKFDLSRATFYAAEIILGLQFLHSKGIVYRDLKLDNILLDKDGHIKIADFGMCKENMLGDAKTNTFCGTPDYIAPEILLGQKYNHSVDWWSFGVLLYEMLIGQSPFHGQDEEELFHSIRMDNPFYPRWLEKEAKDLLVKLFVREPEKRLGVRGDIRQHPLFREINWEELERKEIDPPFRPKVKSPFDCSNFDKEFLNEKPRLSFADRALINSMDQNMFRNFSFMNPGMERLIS", "test": "Selectivity interaction (Kinase panel (33PanQinase(R) Activity Assay)) EUB0000877a PRKCQ"}, "[2]": {"target": "T1, Histone-lysine N-methyltransferase EHMT1 (Homo sapiens) (UniProt Q9H9B1)", "T1 sequence (whole entry)": "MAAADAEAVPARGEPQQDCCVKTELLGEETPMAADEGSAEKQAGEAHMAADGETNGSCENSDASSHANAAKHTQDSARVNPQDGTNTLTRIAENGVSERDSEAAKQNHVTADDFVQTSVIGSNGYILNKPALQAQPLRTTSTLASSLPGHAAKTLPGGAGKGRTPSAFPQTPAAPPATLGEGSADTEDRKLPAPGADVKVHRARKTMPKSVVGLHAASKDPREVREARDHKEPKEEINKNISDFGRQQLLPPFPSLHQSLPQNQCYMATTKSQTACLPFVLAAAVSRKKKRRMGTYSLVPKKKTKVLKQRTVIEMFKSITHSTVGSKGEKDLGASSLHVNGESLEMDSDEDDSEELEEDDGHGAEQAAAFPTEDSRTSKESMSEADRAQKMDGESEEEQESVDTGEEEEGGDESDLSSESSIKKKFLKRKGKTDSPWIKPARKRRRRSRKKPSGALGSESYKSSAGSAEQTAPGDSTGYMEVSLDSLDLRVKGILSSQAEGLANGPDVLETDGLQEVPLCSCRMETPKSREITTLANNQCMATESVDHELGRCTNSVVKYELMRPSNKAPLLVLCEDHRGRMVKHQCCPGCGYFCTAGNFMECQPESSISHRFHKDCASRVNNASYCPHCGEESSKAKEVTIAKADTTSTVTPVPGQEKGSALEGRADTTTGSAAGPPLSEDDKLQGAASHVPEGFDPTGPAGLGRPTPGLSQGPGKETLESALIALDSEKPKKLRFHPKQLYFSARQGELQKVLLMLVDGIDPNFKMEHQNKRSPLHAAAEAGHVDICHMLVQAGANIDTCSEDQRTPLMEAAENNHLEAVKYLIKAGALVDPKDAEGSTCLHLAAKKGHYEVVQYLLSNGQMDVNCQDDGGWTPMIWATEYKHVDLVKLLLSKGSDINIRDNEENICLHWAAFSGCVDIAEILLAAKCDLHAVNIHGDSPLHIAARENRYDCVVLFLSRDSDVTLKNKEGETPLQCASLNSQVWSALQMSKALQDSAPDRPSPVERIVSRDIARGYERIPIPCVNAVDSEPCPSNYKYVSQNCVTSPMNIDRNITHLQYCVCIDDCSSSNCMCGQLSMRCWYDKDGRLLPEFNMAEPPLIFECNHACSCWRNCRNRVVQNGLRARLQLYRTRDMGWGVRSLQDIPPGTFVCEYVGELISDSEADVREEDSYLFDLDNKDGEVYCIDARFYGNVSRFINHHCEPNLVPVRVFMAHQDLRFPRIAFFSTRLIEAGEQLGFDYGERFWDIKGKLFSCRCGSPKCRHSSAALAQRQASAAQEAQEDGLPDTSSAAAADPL", "test": "Selectivity interaction (Methyltransferase screen (Scintillation proximity assays)) EUB0000255b EHMT1"}, "[3]": {"target": "T2, Mitogen-activated protein kinase 12 (Homo sapiens) (UniProt P53778)", "T2 sequence (whole entry)": "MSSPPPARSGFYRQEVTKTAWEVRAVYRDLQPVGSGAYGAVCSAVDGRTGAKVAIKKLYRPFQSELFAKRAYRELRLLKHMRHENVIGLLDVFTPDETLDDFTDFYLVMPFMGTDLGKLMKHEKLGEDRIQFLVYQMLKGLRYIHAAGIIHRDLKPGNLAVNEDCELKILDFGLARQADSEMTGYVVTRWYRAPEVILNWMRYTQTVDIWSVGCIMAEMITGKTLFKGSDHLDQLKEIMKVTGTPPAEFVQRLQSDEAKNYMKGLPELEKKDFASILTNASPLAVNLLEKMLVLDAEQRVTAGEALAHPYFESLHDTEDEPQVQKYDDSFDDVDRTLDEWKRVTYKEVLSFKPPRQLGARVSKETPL", "test": "Selectivity interaction (Kinase screening (Upstate/Millipore)) EUB0000604a MAPK12"}, "[4]": {"target": "G protein-coupled receptor kinase 4 (Homo sapiens) (UniProt P32298)", "sequence (P32298 whole entry, looked up)": "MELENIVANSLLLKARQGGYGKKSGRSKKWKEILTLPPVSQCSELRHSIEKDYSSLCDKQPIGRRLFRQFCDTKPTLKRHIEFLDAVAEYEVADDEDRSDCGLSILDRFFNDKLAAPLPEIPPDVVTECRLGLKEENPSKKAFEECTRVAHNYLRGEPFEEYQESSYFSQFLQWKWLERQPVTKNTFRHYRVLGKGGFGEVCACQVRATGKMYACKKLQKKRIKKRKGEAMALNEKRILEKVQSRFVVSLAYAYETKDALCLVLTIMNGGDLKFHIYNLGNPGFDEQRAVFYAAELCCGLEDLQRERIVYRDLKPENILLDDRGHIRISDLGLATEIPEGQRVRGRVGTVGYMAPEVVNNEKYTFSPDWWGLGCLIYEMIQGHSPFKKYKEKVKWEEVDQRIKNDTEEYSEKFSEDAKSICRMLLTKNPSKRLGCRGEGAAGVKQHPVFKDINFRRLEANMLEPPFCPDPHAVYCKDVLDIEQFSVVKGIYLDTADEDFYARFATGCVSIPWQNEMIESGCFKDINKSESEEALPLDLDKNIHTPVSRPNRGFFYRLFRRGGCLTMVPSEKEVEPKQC", "test": "Selectivity interaction (Ambit KINOMEscan and KiNATiv profiling in Jurkat cells) EUB0000090b GRK4", "assay_type": "cell-based", "details": "at 1 µM"}, "[5]": {"target": "Phosphatidylinositol 4,5-bisphosphate 3-kinase catalytic subunit gamma isoform (Homo sapiens) (UniProt P48736)", "sequence (P48736 whole entry, looked up, canonical isoform)": "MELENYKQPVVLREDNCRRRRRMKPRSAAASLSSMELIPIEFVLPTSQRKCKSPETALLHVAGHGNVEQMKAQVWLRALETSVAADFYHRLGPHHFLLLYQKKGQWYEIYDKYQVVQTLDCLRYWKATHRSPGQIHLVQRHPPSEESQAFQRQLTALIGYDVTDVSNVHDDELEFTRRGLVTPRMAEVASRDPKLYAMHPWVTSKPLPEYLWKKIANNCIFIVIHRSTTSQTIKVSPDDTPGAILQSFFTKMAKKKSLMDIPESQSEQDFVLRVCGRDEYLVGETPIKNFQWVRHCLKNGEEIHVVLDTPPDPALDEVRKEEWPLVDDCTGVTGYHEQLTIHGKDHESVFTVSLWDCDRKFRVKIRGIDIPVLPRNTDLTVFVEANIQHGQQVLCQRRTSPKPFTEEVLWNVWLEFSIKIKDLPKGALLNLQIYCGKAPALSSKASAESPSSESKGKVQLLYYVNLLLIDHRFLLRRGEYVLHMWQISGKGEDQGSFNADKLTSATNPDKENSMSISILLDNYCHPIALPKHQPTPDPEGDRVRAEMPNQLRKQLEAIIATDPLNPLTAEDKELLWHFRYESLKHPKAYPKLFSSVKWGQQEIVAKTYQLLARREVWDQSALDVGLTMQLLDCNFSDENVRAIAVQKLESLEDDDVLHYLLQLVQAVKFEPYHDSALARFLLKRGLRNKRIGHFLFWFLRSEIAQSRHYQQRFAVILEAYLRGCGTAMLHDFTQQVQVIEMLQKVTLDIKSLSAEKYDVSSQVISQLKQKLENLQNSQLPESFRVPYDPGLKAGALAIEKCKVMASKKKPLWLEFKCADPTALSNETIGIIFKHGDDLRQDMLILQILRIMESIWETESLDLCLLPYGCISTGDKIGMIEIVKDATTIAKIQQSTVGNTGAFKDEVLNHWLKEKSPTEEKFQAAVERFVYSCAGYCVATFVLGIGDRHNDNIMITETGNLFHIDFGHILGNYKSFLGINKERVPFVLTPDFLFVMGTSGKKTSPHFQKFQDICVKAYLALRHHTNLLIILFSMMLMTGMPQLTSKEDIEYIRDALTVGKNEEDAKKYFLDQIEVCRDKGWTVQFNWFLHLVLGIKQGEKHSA", "test": "Selectivity interaction (KinomeScan (DiscoverX)) EUB0000045b PIK3CG", "details": "at 1 µM"}, "[6]": {"target": "Tyrosine-protein kinase ABL2 (Homo sapiens, UniProt P42684)", "sequence (P42684 whole entry)": "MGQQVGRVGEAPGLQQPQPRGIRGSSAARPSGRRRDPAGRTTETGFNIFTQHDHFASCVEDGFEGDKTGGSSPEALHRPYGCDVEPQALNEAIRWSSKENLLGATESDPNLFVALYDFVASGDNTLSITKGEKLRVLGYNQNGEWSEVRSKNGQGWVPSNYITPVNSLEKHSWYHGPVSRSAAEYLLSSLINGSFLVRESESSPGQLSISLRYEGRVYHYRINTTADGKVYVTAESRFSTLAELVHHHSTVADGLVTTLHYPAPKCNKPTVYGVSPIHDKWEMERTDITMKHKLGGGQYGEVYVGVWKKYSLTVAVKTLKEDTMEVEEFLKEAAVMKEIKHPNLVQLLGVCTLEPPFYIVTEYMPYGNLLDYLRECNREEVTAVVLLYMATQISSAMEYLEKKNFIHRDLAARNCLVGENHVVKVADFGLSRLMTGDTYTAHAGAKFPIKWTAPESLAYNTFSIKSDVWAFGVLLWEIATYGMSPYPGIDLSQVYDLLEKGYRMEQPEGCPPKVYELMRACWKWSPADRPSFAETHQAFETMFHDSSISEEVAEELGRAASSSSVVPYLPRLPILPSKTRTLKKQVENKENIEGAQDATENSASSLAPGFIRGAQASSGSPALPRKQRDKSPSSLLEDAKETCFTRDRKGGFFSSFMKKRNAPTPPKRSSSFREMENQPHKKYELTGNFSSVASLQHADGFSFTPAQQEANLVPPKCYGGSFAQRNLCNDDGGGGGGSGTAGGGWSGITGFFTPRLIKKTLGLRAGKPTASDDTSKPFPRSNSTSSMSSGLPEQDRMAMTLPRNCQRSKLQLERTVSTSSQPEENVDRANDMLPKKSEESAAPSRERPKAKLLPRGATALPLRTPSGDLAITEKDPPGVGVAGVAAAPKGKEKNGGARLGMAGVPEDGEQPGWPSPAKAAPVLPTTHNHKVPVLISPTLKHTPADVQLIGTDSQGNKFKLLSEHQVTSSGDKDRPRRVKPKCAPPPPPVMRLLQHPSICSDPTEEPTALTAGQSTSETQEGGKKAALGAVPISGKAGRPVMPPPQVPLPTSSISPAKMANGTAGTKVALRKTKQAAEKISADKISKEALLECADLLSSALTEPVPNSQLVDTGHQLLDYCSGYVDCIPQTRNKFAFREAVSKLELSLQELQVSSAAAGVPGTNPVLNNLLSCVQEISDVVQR", "test": "Selectivity interaction (KinomeScan (DiscoverX)) EUB0000618a ABL2", "details": "at 10 µM"}, "[7]": {"target": "T3, Scaffold protein ILK (Homo sapiens) (UniProt Q13418)", "T3 sequence (whole entry)": "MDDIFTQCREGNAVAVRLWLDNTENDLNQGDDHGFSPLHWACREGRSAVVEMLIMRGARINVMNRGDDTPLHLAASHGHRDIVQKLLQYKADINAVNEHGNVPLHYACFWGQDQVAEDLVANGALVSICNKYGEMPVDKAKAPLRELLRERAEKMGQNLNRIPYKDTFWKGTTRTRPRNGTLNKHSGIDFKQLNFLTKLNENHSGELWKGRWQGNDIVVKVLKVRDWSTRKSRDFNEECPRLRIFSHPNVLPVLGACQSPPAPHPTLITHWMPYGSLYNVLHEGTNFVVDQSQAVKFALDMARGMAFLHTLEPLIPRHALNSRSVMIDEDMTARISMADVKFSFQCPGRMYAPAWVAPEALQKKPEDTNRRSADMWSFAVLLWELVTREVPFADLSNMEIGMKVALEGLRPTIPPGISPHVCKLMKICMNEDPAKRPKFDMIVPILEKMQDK", "test": "Selectivity interaction (ActivX KiNativ screen (ex vivo kinase selectivity in human PBMCs)) EUB0001619a ILK", "assay_type": "cell-based", "details": "PBMC, at 1 µM"}, "[8]": {"target": "Mitogen-activated protein kinase 3 (Homo sapiens, UniProt P27361)", "sequence (P27361 whole entry)": "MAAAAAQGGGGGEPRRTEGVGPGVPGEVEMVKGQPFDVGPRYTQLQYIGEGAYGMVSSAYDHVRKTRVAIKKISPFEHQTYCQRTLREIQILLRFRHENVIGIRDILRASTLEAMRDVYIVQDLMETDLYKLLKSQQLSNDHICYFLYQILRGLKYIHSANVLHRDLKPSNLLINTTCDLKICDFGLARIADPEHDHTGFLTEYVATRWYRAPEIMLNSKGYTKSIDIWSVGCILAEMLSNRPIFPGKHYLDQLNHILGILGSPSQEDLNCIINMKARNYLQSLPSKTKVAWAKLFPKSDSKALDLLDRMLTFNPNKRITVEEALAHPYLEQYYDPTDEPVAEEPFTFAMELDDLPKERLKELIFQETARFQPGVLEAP", "test": "Selectivity interaction (ActivX KiNativ screen (ex vivo kinase selectivity in human PBMCs)) EUB0001619a MAPK3", "assay_type": "cell-based", "details": "PBMC, at 1 µM"}}}
{"smiles": "CCC(=O)N1CC[C@H](Nc2ncnc3c2CN(c2cnc(OC)c(C(F)(F)F)c2)CC3)C1", "note": "[LENIOLISIB]", "values": [{"measurement": "IC50", "setting": "[1]", "value": "> 10", "unit": "µM"}]}
{"smiles": "COCCN1CCC(c2cc(CN(C)C(=O)c3cccc(Oc4ccccc4)c3)ccn2)CC1", "values": [{"measurement": "% activity", "setting": "[2]; at 1 µM", "value": "> 95", "unit": "%"}, {"measurement": "% activity", "setting": "[2]; at 10 µM", "value": "> 90", "unit": "%"}]}
{"smiles": "Cc1cnc(Nc2ccc(F)cc2Cl)nc1-c1c[nH]c(C(=O)N[C@H](CO)c2cccc(Cl)c2)c1", "values": [{"measurement": "% of inhibition", "setting": "[3]", "value": 56, "unit": "%"}]}
{"smiles": "CN(C)C/C=C/C(=O)Nc1ccc(C(=O)N2CCCC(Nc3ncc(Cl)c(-c4c[nH]c5ccccc45)n3)C2)cc1", "note": "(centres undefined)", "values": [{"measurement": "% of control", "setting": "[4]", "value": 99, "unit": "%"}]}
{"smiles": "C=CC(=O)Nc1cc(-n2c(=O)ccc3cnc4ccc(-c5ccc(NS(C)(=O)=O)cc5)cc4c32)ccc1C", "values": [{"measurement": "% of control", "setting": "[5]", "value": 2.8, "unit": "%"}]}
{"smiles": "O[C@H]1CC[C@H](Nc2ncc3nc(Nc4c(F)cc(F)cc4F)n([C@H]4CCOC4)c3n2)CC1", "values": [{"measurement": "% of control", "setting": "[6]", "value": 100, "unit": "%"}]}
{"smiles": "N#Cc1cccc(-c2c[nH]c3ncnc(N4CCOCC4)c23)c1", "values": [{"measurement": "% of inhibition", "setting": "[7]", "value": -12, "unit": "%"}, {"measurement": "% of inhibition", "setting": "[8]", "value": 3, "unit": "%"}]}
